US20060110456A1, “Method for biocidal and/or biostatic treatment and compositions therefor” (NATIONAL UNIVERSITY OF SINGAPORE, priority 2004, published 2006)
“And” between values parts separate entries of the source, which are not always exact repeats. Equal values may be shown once. “Also recorded” adds a separate entry of the source. Where a name gives a salt, the structure may show the parent alone. Read-outs that look alike come from different tables or passages of the source.

Key:
[1] = tested on: marine bacteria (26 strains); assay: Disk inhibition assay; format: cell-based, marine bacteria isolated from Singapore fouling communities
How it was run: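 Tablets or capsule powders suspended in sterile water at 2 mg ml^−1 and loaded onto disks; antibiotic discs (Amp, Ery, Str, Tet) served as comparison. Disks placed on swabbed lawns on Marine Agar, incubated overnight in the dark at 30° C. Zone of clearing diameter measured by calipers; three replicates on three occasions.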

[2] = tested on: hard fouling (barnacles, serpulids, spirorbids); assay: Field testing of coated rods; format: in vivo; design: Total hard fouling, difference in mean cover (%), drug vs control / Barnacles, difference in mean cover (%), drug vs control: tested at 25 µg/ml of coating; Serpulids, difference in mean cover (%), drug vs control: tested at 25 µg/ml of coating mix; settings: for Performance against barnacles / Effect of addition of drug on antifouling performance of VC50 coating (total hard fouling) / Performance against spirorbid polychaetes: in words; for Overall performance in field assay: crude rank, best (1) to worst (8); for Barnacles, difference in mean cover (%), drug vs VC50 / Serpulids, difference in mean cover (%), drug vs VC50 / Spirorbids, difference in mean cover (%), drug vs VC50 / Total hard fouling, difference in mean cover (%), drug vs VC50: drug + VC50 rods vs VC50 control; for Barnacles, difference in mean cover (%), drug vs control / Serpulids, difference in mean cover (%), drug vs control / Spirorbids, difference in mean cover (%), drug vs control / Total hard fouling, difference in mean cover (%), drug vs control: drug + VC50 rods vs uncoated blank control; for Barnacles Mean cover (%) / Serpulids Mean cover (%) / Spirorbids Mean cover (%) / Total hard fouling Mean cover (%): rods coated with drug + VC50, field test; for Total hard fouling Mean cover (%): percentage cover within 6 mm×50 mm transect
Experimental: Fouling on rods occurs more rapidly than on flat panels, enabling rapid assessment of the performance of coatings.
6 mm diameter glass rods were cut to 150 mm length and prepared prior to coating by baking in a furnace at 150° C. for 24 hours and then cooling in a dessicator.
All pharmaceuticals were obtained in commercially available form. All tablets were reduced to fine powder with a mortar and pestle, and capsules were opened to extract the contents. The amount of drug powder required to attain the desired concentrations for all tests was calculated from product dosage information and then measured by weight on a high-resolution electronic balance. This was added to the coating and mixed thoroughly prior to application to obtain the concentration of 25 ug active ingredient per ml of coating mix.
The commercial antifouling product used to benchmark field experiments was VC Offshore with Teflon® manufactured by International Coatings.
For our experiments, a reduced copper coating (“VC50”) was prepared by mixing approximately 20 g of #YBA779 into 100 ml of #YBA707. The prepared coating was then allowed to stand so that bubbles from the mixing process dissipated. 15 ml centrifuge tubes were filled with 10 mls of prepared coating. Prepared glass rods were then immersed in the coating to a height of 100 mm and then suspended on a frame to air dry until coating cured.
Five replicate rods were tested for every experimental treatment, including controls. Two sets of controls were used, an uncoated blank control and a VC50 control without pharmaceutical additives. Rod were randomly arrayed on plastic vexar mesh attached to PVC frames and suspended at a depth of 10 cm from the water surface. […] Rods were examined visually weekly for the duration of testing, which typically lasts between 6 to 10 weeks. All fouling was scored as percentage cover of each category within a 6 mm×50 mm transect on each rod.

[3] = coated rods, 25 ug active ingredient per ml of VC50 coating
[4] = drug at 25 ug per ml of VC50 coating
[5] = crude rank, best (1) to worst (8)
[6] = drug at 25 ug per ml of VC50 coating, hydrochloride

| SMILES | Total hard fouling, mean cover [2, 3] [%] | Performance against barnacles ([2]; coated rods) | Overall performance in field assay [2] | Barnacles, difference in mean cover (%), drug vs VC50 [2] [%] | Serpulids, difference in mean cover (%), drug vs VC50 [2] [%] | Spirorbids, difference in mean cover (%), drug vs VC50 [2] [%] | Total hard fouling, difference in mean cover (%), drug vs VC50 [2] [%] | Barnacles, difference in mean cover (%), drug vs control [2] [%] | Serpulids, difference in mean cover (%), drug vs control [2] [%] | Spirorbids, difference in mean cover (%), drug vs control [2] | Total hard fouling, difference in mean cover (%), drug vs control [2] [%] | Barnacles Mean cover (%) [2] [%] | Serpulids Mean cover (%) [2] [%] | Spirorbids Mean cover (%) [2] [%] | Total hard fouling Mean cover (%) [2] [%] | Antibiotic activity against marine bacteria ([1]; 25 or 50 μg per disc, in words) | Antibiotic activity against marine bacteria [1, 5] | Effect of addition of drug on antifouling performance of VC50 coating (total hard fouling) [2, 6] | other results |
| --- | --- | --- | --- | --- | --- | --- | --- | --- | --- | --- | --- | --- | --- | --- | --- | --- | --- | --- | --- |
| Cc1cc2c(s1)Nc1ccccc1N=C2N1CCN(C)CC1 [ZPX, olanzapine] | 17.3 | only significant for barnacles | 3 | −23.3 | −1.67 | −12.66 | −37.7 | −86.3 | −3.33 | +9% | −80.7 | 6.67 | 0 | 10.67 | 17.3 | – | – | – | Antibiotic activity against marine bacteria [1]: did not have any appreciable antibiotic activity against marine bacteria and 8; Effect of addition of drug on antifouling performance of VC50 coating (total hard fouling) [2, 4]: significantly improved performance against total hard fouling; also recorded: significantly improved the performance of VC50 coating |
| CN(C)C(=O)C(CCN1CCC(O)(c2ccc(Cl)cc2)CC1)(c1ccccc1)c1ccccc1 [IMD, Loperamide hydrochloride] | 0.67 | significantly less than on both controls | 1 | – | – | – | – | – | – | – | – | – | – | – | – | did not have any appreciable antibiotic activity against marine bacteria | 8 | significantly increased the fouling resistance of the base coating; also recorded: significantly improved the performance of VC50 coating | Reduction of total hard fouling cover compared to blank controls ([2]; coated rods): 97.3%; Barnacles, mean cover [2, 3]: 0.67%; Serpulids, mean cover [2, 3]: 0%; Spirorbids, mean cover [2, 3]: 0%; Performance against spirorbid polychaetes ([2]; coated rods, hydrochloride): exclude spirorbid settlement; also recorded: no settlement by spirorbids; Reduction of total hard fouling cover compared to VC50 alone [2, 4]: 54.3%; Barnacles, difference in mean cover vs VC50 ([2]; vs VC50 control): −29.3%; Serpulids, difference in mean cover vs VC50 ([2]; vs VC50 control): −1.67%; Spirorbids, difference in mean cover vs VC50 ([2]; vs VC50 control): −23.33%; Total hard fouling, difference in mean cover vs VC50 ([2]; vs VC50 control): −54.3%; Barnacles, difference in mean cover vs control ([2]; vs uncoated blank control): −92.3%; Serpulids, difference in mean cover vs control ([2]; vs uncoated blank control): −3.33%; Spirorbids, difference in mean cover vs control ([2]; vs uncoated blank control): −1.67%; Total hard fouling, difference in mean cover vs control ([2]; vs uncoated blank control): −97.3% |
| Cc1nccn1CC1CCc2c(c3ccccc3n2C)C1=O (stereo not drawn) [ZFN, ondansetron hydrochloride] | 10 | – | 2 | −26.33 | 0 | −18.66 | −45 | -89.3 | −1.66 | +3% | −88 | 3.67 | 1.67 | 4.67 | 10 | did not have any appreciable antibiotic activity against marine bacteria | 8 | increased the antifouling properties of VC50 coating significantly; also recorded: significantly improved the performance of VC50 coating | Performance against spirorbid polychaetes ([2]; coated rods): exclude spirorbid settlement; Less spirorbid cover than VC50 [2, 4]: 18.7%; Reduction in barnacle cover compared to VC50 [2, 4]: 26.3% |
